Reference: patent US20240246942A1, “KINASE INHIBITORS FOR THE TREATMENT OF NEURODEGENERATIVE DISEASES” (priority 2020, published 2024)

Columns and labels:
Experiment in all cases: biochemical
[1] = molecular target: T1, panel of 374 wild-type kinases (Homo sapiens, UniProt P53355); settings: read-out: % Enzyme Activity (relative to DMSO controls), DAPK1
T1 construct: purchased Reaction Biology Corporation

[2] = molecular target: T2, panel of 374 wild-type kinases (Homo sapiens, UniProt P08631); settings: read-out: % Enzyme Activity (relative to DMSO controls), HCK
T2 construct: purchased Reaction Biology Corporation

[3] = molecular target: T3, panel of 374 wild-type kinases (Homo sapiens, UniProt Q13882); settings: read-out: % Enzyme Activity (relative to DMSO controls), BRK
T3 construct: purchased Reaction Biology Corporation

[4] = molecular target: T4, panel of 374 wild-type kinases (Homo sapiens, UniProt O15264); settings: read-out: % Enzyme Activity (relative to DMSO controls), kinase P38d/MAPK13
T4 construct: purchased Reaction Biology Corporation
T4 sequence (O15264 1-365): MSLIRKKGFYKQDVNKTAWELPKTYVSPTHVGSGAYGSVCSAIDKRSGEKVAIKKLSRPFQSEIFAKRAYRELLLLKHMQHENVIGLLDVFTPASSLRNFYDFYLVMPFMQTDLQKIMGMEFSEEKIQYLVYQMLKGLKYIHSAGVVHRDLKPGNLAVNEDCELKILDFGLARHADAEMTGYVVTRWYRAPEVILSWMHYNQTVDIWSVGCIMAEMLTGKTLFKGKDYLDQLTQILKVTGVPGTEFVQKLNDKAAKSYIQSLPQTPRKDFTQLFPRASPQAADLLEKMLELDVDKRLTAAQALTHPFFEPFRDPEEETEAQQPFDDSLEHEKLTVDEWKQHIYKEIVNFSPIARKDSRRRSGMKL

[5] = molecular target: T5, panel of 374 wild-type kinases (Homo sapiens, UniProt Q13873); settings: read-out: % Enzyme Activity (relative to DMSO controls), BMPR2
T5 construct: purchased Reaction Biology Corporation
T5 sequence (Q13873 27-1038): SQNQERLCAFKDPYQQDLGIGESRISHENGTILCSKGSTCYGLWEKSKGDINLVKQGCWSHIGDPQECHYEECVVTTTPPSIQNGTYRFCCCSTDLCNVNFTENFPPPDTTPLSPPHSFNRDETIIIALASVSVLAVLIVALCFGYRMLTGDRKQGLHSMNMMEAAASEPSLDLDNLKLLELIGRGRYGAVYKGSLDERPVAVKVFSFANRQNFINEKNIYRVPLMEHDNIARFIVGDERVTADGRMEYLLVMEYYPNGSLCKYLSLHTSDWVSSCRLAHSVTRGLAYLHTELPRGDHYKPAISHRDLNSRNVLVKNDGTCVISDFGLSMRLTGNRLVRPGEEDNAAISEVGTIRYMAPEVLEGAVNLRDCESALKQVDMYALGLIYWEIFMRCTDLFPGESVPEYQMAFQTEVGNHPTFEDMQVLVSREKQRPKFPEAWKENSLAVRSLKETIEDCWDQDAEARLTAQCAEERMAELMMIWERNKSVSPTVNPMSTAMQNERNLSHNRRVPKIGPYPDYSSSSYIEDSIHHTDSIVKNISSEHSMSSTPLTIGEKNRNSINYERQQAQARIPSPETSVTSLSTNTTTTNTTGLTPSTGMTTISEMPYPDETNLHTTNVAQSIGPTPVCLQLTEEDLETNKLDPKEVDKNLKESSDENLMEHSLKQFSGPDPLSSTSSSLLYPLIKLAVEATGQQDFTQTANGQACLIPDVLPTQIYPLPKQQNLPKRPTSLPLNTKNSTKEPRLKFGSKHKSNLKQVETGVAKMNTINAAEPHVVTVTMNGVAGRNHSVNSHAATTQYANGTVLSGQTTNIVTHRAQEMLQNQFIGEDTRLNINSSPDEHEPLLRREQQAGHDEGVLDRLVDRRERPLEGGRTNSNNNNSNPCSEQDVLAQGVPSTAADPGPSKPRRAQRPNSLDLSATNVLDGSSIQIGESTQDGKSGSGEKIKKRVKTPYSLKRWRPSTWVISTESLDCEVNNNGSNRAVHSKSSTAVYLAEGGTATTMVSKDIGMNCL

[6] = molecular target: T6, panel of 374 wild-type kinases (Homo sapiens, UniProt Q08881); settings: read-out: % Enzyme Activity (relative to DMSO controls), ITK
T6 construct: purchased Reaction Biology Corporation
T6 sequence (Q08881 1-620): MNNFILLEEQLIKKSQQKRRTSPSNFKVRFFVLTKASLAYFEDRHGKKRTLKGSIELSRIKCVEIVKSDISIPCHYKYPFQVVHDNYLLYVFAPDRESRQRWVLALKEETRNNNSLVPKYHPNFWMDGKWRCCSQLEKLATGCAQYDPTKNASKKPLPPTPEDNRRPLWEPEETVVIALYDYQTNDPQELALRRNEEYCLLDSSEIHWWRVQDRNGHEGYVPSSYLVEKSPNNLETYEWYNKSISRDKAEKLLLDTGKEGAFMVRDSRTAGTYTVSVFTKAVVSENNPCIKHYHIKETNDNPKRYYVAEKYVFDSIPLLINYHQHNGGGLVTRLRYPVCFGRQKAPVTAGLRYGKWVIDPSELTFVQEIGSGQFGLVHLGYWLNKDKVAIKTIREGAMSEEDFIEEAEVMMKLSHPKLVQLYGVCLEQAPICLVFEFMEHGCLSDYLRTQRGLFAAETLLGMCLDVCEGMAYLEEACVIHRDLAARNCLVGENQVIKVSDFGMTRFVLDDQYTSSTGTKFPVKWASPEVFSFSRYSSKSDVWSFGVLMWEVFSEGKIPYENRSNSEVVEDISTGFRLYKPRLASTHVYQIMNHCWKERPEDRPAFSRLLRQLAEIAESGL

[7] = molecular target: T7, panel of 374 wild-type kinases (Homo sapiens, UniProt Q02763); settings: read-out: % Enzyme Activity (relative to DMSO controls), kinase TIE2/TEK
T7 construct: purchased Reaction Biology Corporation

[8] = molecular target: T8, panel of 374 wild-type kinases (Homo sapiens, UniProt Q9Y243); settings: read-out: % Enzyme Activity (relative to DMSO controls), AKT3
T8 construct: purchased Reaction Biology Corporation
T8 sequence (Q9Y243 whole entry): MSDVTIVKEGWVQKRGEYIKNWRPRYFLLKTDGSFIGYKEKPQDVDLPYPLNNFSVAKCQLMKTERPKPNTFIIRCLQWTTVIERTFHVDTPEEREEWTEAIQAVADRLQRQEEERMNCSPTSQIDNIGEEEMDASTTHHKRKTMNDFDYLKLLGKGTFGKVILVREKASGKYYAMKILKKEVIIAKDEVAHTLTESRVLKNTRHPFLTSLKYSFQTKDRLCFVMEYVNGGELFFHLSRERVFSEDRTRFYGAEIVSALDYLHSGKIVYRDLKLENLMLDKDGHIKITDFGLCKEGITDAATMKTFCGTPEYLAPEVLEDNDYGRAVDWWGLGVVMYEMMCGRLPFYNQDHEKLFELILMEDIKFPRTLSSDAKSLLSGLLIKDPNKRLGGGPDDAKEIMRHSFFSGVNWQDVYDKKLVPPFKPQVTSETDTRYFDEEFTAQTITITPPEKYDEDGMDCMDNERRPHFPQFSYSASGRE

T2 sequence (P08631 whole entry): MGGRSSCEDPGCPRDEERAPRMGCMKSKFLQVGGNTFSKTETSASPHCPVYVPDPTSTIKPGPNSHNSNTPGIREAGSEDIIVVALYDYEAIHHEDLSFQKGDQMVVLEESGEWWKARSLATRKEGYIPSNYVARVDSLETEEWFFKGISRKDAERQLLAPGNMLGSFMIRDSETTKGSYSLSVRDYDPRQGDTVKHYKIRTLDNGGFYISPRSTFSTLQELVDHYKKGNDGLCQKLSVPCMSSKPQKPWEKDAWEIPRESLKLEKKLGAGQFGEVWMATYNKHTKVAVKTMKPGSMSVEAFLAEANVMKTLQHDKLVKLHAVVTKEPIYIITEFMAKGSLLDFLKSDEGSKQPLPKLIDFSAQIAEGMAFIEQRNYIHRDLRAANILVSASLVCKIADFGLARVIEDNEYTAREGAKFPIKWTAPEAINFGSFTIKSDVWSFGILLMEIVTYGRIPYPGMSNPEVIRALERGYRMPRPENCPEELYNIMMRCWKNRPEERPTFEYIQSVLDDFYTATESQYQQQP
T3 sequence (Q13882 whole entry): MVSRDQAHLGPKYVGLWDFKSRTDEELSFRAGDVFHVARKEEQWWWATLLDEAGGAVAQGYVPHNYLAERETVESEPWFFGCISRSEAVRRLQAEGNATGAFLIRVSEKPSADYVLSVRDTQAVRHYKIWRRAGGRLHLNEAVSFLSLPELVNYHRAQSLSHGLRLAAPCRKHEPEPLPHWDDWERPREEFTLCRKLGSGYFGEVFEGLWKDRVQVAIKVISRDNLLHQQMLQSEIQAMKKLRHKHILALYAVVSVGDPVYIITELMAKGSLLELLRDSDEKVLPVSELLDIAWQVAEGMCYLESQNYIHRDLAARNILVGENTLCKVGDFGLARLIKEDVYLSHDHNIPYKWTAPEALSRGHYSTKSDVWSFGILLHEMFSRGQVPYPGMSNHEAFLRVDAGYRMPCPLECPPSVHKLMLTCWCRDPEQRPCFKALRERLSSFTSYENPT
T1 sequence (P53355 whole entry): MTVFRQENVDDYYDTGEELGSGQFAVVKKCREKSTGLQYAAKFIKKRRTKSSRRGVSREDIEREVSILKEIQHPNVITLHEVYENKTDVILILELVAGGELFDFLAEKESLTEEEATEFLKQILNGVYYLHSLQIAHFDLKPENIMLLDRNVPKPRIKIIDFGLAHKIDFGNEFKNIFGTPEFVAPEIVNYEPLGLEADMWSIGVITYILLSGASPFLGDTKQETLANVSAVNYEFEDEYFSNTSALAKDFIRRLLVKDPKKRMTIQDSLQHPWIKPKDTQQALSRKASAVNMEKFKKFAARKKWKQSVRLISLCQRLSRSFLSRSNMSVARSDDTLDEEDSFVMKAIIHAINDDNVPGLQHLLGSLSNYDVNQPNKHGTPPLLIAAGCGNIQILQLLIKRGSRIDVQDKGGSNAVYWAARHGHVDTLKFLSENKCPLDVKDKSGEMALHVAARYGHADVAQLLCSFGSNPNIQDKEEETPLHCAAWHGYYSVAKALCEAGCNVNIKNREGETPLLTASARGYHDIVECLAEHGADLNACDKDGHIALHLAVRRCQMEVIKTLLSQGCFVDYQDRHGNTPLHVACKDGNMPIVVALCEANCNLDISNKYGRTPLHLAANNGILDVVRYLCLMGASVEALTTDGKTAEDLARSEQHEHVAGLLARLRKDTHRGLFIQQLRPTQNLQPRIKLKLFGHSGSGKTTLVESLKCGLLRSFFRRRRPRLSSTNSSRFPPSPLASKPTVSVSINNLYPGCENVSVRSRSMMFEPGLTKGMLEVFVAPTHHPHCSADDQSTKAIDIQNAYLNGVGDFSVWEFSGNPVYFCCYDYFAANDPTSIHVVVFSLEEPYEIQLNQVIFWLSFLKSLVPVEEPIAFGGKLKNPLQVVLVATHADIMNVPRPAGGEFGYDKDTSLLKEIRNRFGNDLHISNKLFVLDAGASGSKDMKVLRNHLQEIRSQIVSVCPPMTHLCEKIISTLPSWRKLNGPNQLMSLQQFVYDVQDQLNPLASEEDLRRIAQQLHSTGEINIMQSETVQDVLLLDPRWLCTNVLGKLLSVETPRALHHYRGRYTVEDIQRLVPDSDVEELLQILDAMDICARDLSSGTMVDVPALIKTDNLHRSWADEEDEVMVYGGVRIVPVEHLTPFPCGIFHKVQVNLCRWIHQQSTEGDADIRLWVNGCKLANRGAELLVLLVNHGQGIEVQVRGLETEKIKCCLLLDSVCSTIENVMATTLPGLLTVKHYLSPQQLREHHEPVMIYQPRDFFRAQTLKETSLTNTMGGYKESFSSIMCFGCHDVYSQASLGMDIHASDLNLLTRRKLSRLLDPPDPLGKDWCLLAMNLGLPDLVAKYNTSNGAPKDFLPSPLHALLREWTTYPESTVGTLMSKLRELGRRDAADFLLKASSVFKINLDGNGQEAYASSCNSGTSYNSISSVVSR
T7 sequence (Q02763 23-1124): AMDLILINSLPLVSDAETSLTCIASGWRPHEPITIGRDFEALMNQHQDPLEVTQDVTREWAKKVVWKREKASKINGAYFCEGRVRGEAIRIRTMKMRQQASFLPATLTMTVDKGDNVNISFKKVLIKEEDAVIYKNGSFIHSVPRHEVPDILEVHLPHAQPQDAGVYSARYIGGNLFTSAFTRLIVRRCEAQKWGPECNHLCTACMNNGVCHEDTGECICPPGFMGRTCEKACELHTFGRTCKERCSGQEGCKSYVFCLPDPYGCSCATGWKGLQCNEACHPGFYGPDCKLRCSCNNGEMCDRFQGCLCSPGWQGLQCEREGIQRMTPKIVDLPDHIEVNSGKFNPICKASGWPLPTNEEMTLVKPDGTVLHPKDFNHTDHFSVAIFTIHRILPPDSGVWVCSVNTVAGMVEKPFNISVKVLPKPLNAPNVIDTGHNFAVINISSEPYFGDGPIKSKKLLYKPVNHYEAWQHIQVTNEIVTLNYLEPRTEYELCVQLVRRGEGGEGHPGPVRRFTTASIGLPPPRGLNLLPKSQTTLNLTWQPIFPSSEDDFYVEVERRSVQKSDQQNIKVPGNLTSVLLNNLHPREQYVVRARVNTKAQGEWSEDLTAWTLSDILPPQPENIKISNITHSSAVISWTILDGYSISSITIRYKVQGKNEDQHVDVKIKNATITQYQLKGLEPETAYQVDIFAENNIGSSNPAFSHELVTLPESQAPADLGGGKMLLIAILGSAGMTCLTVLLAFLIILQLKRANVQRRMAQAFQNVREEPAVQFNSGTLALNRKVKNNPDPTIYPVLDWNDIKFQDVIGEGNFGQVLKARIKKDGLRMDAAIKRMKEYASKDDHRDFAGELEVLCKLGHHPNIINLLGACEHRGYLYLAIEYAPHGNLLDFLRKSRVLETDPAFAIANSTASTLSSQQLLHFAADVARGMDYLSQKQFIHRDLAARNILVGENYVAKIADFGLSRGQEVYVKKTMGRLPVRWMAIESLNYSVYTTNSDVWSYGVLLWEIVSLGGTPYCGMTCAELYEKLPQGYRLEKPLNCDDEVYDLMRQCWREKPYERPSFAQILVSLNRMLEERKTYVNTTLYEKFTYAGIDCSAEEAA

Compound: O=C(Nc1cnn(-c2csc(C(=O)NC3COC3)c2)c1)Nc1ccccc1Cl [Compound 17, 4-(4-(3-(2-chlorophenyl)ureido)-1H-pyrazol-1-yl)-N-(oxetan-3-yl)thiophene-2-carboxamide]
- remaining activity at 5 µM [1]: 104%
- remaining activity at 5 µM [2]: 94%
- remaining activity at 5 µM [3]: 118%
- remaining activity at 5 µM [4]: 122%
- remaining activity at 5 µM [5]: 110%
- remaining activity at 5 µM [6]: 107%
- remaining activity at 5 µM [7]: 100%
- remaining activity at 5 µM [8]: 87.3%

Compound: Cc1sc(C(=O)NC2COC2)cc1-n1cc(NC(=O)Nc2c(F)cccc2Cl)cn1 [Compound 27, 4-(4-(3-(2-chloro-6-fluorophenyl)ureido)-1H-pyrazol-1-yl)-5-methyl-N-(oxetan-3-yl)thiophene-2-carboxamide]
- remaining activity at 10 µM ([1]; 10 uM): 104%
- remaining activity at 10 µM ([2]; 10 uM): 95%
- remaining activity at 10 µM ([3]; 10 uM): 78.9%
- remaining activity at 10 µM ([4]; 10 uM): 89.2%
- remaining activity at 10 µM ([5]; 10 uM): 84.5%
- remaining activity at 10 µM ([6]; 10 uM): 94.4%
- remaining activity at 10 µM ([7]; 10 uM): 86.6%
- remaining activity at 10 µM ([8]; 10 uM): 94.8%

Compound: O=C(Nc1cnn(-c2csc(C(=O)NC3COC3)c2)c1)Nc1c(F)cccc1Cl [Compound 25, 4-(4-(3-(2-chloro-6-fluorophenyl)ureido)-1H-pyrazol-1-yl)-N-(oxetan-3-yl)thiophene-2-carboxamide]
- remaining activity at 5 µM [1]: 98.9%
- remaining activity at 5 µM [2]: 91.3%
- remaining activity at 5 µM [3]: 85.7%
- remaining activity at 5 µM [4]: 98.4%
- remaining activity at 5 µM [5]: 77.2%
- remaining activity at 5 µM [6]: 92.8%
- remaining activity at 5 µM [7]: 105%
- remaining activity at 5 µM [8]: 97.6%
